The text below walks through data of ChEMBL document CHEMBL2424658, “Design, synthesis, and evaluation of novel 1-methyl-3-substituted quinazoline-2,4-dione derivatives as antimicrobial agents” (2013).

Holding throughout (assay type): functional
One experiment concerns Pseudomonas aeruginosa. Put plainly: Antibacterial activity against Pseudomonas aeruginosa CR 56 after overnight incubation by […] method.
The test system of another experiment is Cryptococcus neoformans. Put plainly: Antifungal activity against Cryptococcus neoformans after overnight incubation by […] method. In general terms: In agar diffusion tests the substance spreads into inoculated agar from a disc or well.
The test system of another experiment is Aspergillus flavus. The experiment in a line: Antifungal activity against Aspergillus flavus 3905 after overnight incubation by […] method.
A further experiment relates to Candida albicans. The experiment in a line: Antifungal activity against Candida albicans ATCC 76615 after overnight incubation by […] method.
In a further experiment the test system is Candida. The experiment in a line: Antifungal activity against Candida mycoderma after overnight incubation by […] method.
Another experiment relates to Bacillus. The experiment in a line: Antibacterial activity against Bacillus proteus after overnight incubation by […] method.
A further experiment concerns Escherichia coli. The experiment in a line: Antibacterial activity against Escherichia coli JM 109 after overnight incubation by […] method.
For a further experiment, the system named is Bacillus subtilis. Put plainly: Antibacterial activity against Bacillus subtilis ATCC 6633 after overnight incubation by […] method.
The subject of experiment [1] is Staphylococcus aureus. Put plainly: Antibacterial activity against methicillin-resistant Staphylococcus aureus N315 after overnight incubation by […] method.
Experiment [2] deals with Staphylococcus aureus. Put plainly: Antibacterial activity against Staphylococcus aureus ATCC 25923 after overnight incubation by […] method.
The subject of a further experiment is Saccharomyces cerevisiae. Put plainly: Antifungal activity against Saccharomyces cerevisiae CGMCC2.145 after overnight incubation by […] method.

Structures are written as SMILES. In brackets after ≈: the same amount, converted by molar mass.

In general, MIC refers to the least concentration at which growth counts as inhibited. As for `Cn1c(=O)n(CCOC(=O)CNC(=O)c2cccc(F)c2)c(=O)c2ccccc21`, the MIC is 128 µg/mL (≈ 320 µM) with Pseudomonas aeruginosa; 256 µg/mL (≈ 641 µM) with Cryptococcus neoformans; 64 µg/mL (≈ 160 µM) against Aspergillus flavus; 16 µg/mL (≈ 40.1 µM) against Candida albicans; 512 µg/mL (≈ 1280 µM) in the experiment with Candida; 512 µg/mL (≈ 1280 µM) in the experiment on Bacillus. Moreover, the minimal inhibitory concentration (MIC) against Escherichia coli stood at 128 µg/mL (≈ 320 µM); against Bacillus subtilis, 256 µg/mL (≈ 641 µM); with Staphylococcus aureus [1] it was 32 µg/mL (≈ 80.1 µM); against Staphylococcus aureus [2] it was 128 µg/mL (≈ 320 µM).

For the compound `Cn1c(=O)n(CCOC(=O)CNC(=O)c2ccc(F)cc2)c(=O)c2ccccc21`, the MIC in the experiment with Pseudomonas aeruginosa stood at 256 µg/mL (≈ 641 µM); in the experiment on Cryptococcus neoformans it was 16 µg/mL (≈ 40.1 µM); in the experiment with Aspergillus flavus it was 64 µg/mL (≈ 160 µM); in the experiment on Candida albicans it was 32 µg/mL (≈ 80.1 µM); against Candida, 64 µg/mL (≈ 160 µM); in the experiment with Bacillus, 512 µg/mL (≈ 1280 µM). In addition, the minimum inhibitory concentration (MIC) against Escherichia coli was 64 µg/mL (≈ 160 µM); in the experiment on Bacillus subtilis, 128 µg/mL (≈ 320 µM); with Staphylococcus aureus [1], 4 µg/mL (≈ 10 µM); in the experiment with Staphylococcus aureus [2], 256 µg/mL (≈ 641 µM).

As for `Cn1c(=O)n(CCOC(=O)CNC(=O)c2ccccc2Cl)c(=O)c2ccccc21`, the MIC was determined as 128 µg/mL (≈ 308 µM) against Pseudomonas aeruginosa; 128 µg/mL (≈ 308 µM) against Cryptococcus neoformans; 128 µg/mL (≈ 308 µM) against Aspergillus flavus; 32 µg/mL (≈ 77 µM) against Candida albicans; 64 µg/mL (≈ 154 µM) against Candida; 128 µg/mL (≈ 308 µM) against Bacillus. For the same compound, the minimal inhibitory concentration (MIC) was 512 µg/mL (≈ 1230 µM) against Escherichia coli, 64 µg/mL (≈ 154 µM) in the experiment with Bacillus subtilis, over 512 µg/mL in the experiment with Staphylococcus aureus [1] and 512 µg/mL (≈ 1230 µM) against Staphylococcus aureus [2].

In the case of `Cc1ccccc1C(=O)NCC(=O)OCCn1c(=O)c2ccccc2n(C)c1=O`, the MIC against Pseudomonas aeruginosa came out at 256 µg/mL (≈ 647 µM); with Cryptococcus neoformans, 16 µg/mL (≈ 40.5 µM); against Aspergillus flavus, 128 µg/mL (≈ 324 µM); against Candida albicans it was 512 µg/mL (≈ 1290 µM); in the experiment on Candida, 512 µg/mL (≈ 1290 µM); against Bacillus, 32 µg/mL (≈ 80.9 µM). The MIC in the experiment with Escherichia coli was determined as 32 µg/mL (≈ 80.9 µM); with Bacillus subtilis, 64 µg/mL (≈ 162 µM); with Staphylococcus aureus [1], 32 µg/mL (≈ 80.9 µM); with Staphylococcus aureus [2] it was 512 µg/mL (≈ 1290 µM).

With `Cn1c(=O)n(CCOC(=O)CNC(=O)c2ccc([N+](=O)[O-])cc2)c(=O)c2ccccc21`, the MIC in the experiment with Pseudomonas aeruginosa amounted to 64 µg/mL (≈ 150 µM); with Candida albicans, 512 µg/mL (≈ 1200 µM); against Candida it was 64 µg/mL (≈ 150 µM); against Bacillus, 128 µg/mL (≈ 300 µM); with Escherichia coli, 128 µg/mL (≈ 300 µM); with Bacillus subtilis, 512 µg/mL (≈ 1200 µM). The minimum inhibitory concentration (MIC) with Staphylococcus aureus [1] worked out at 8 µg/mL (≈ 18.8 µM); in the experiment with Staphylococcus aureus [2], 256 µg/mL (≈ 600 µM).

`COc1ccc(C(=O)NCC(=O)OCCn2c(=O)c3ccccc3n(C)c2=O)cc1`: the MIC was 128 µg/mL (≈ 311 µM) against Pseudomonas aeruginosa; 32 µg/mL (≈ 77.8 µM) in the experiment with Cryptococcus neoformans; 128 µg/mL (≈ 311 µM) in the experiment on Aspergillus flavus; 32 µg/mL (≈ 77.8 µM) in the experiment on Candida albicans; 512 µg/mL (≈ 1240 µM) against Candida; 512 µg/mL (≈ 1240 µM) against Bacillus. Moreover, the MIC against Escherichia coli came to 512 µg/mL (≈ 1240 µM); against Bacillus subtilis, 4 µg/mL (≈ 9.72 µM); in the experiment with Staphylococcus aureus [1] it was 256 µg/mL (≈ 622 µM); in the experiment with Staphylococcus aureus [2], 512 µg/mL (≈ 1240 µM).

Consider `Cc1ccc(C(=O)NCC(=O)OCCn2c(=O)c3ccccc3n(C)c2=O)cc1`, for which the minimum inhibitory concentration (MIC) with Pseudomonas aeruginosa came to 128 µg/mL (≈ 324 µM); against Cryptococcus neoformans it was 16 µg/mL (≈ 40.5 µM); with Aspergillus flavus, 64 µg/mL (≈ 162 µM); against Candida albicans it was 32 µg/mL (≈ 80.9 µM); in the experiment on Candida, 512 µg/mL (≈ 1290 µM); against Bacillus it was 32 µg/mL (≈ 80.9 µM). Besides, the MIC in the experiment with Escherichia coli turned out to be 512 µg/mL (≈ 1290 µM); against Bacillus subtilis, 64 µg/mL (≈ 162 µM); against Staphylococcus aureus [1], 512 µg/mL (≈ 1290 µM); in the experiment on Staphylococcus aureus [2], 512 µg/mL (≈ 1290 µM).

Take `Cn1c(=O)n(CCOC(=O)CNC(=O)c2cccc([N+](=O)[O-])c2)c(=O)c2ccccc21`: the MIC in the experiment with Pseudomonas aeruginosa is 512 µg/mL (≈ 1200 µM); with Cryptococcus neoformans, 128 µg/mL (≈ 300 µM); against Aspergillus flavus, 64 µg/mL (≈ 150 µM); with Candida albicans, 64 µg/mL (≈ 150 µM); with Candida, 16 µg/mL (≈ 37.5 µM); with Bacillus, 128 µg/mL (≈ 300 µM). In addition, the MIC was 16 µg/mL (≈ 37.5 µM) with Escherichia coli, 256 µg/mL (≈ 600 µM) in the experiment on Bacillus subtilis, 4 µg/mL (≈ 9.38 µM) against Staphylococcus aureus [1] and 128 µg/mL (≈ 300 µM) in the experiment on Staphylococcus aureus [2].

On to `Cn1c(=O)n(CCOC(=O)CNC(=O)c2ccc(Cl)cc2)c(=O)c2ccccc21`, for which the MIC in the experiment with Pseudomonas aeruginosa came out at 256 µg/mL (≈ 616 µM); in the experiment on Cryptococcus neoformans, 32 µg/mL (≈ 77 µM); with Aspergillus flavus it was 32 µg/mL (≈ 77 µM); in the experiment on Candida albicans, 64 µg/mL (≈ 154 µM); with Candida, 512 µg/mL (≈ 1230 µM); against Bacillus it was 256 µg/mL (≈ 616 µM). Besides, the MIC amounted to 256 µg/mL (≈ 616 µM) in the experiment on Escherichia coli, 128 µg/mL (≈ 308 µM) with Bacillus subtilis, 512 µg/mL (≈ 1230 µM) against Staphylococcus aureus [1] and 128 µg/mL (≈ 308 µM) against Staphylococcus aureus [2].

For the compound `Cn1c(=O)n(CCOC(=O)CNC(=O)c2ccco2)c(=O)c2ccccc21`, the MIC in the experiment on Pseudomonas aeruginosa worked out at 128 µg/mL (≈ 345 µM); with Cryptococcus neoformans, 128 µg/mL (≈ 345 µM); against Aspergillus flavus, 64 µg/mL (≈ 172 µM); with Candida albicans, 32 µg/mL (≈ 86.2 µM); in the experiment with Candida it was 64 µg/mL (≈ 172 µM); in the experiment on Bacillus, 128 µg/mL (≈ 345 µM). The MIC was 4 µg/mL (≈ 10.8 µM) with Escherichia coli, 4 µg/mL (≈ 10.8 µM) in the experiment with Bacillus subtilis, over 512 µg/mL against Staphylococcus aureus [1] and 256 µg/mL (≈ 689 µM) in the experiment with Staphylococcus aureus [2].

On to `Cn1c(=O)n(CCOC(=O)CNC(=O)c2cccs2)c(=O)c2ccccc21`, for which the MIC with Pseudomonas aeruginosa worked out at 64 µg/mL (≈ 165 µM); in the experiment with Cryptococcus neoformans it was 256 µg/mL (≈ 661 µM); with Aspergillus flavus, 64 µg/mL (≈ 165 µM); in the experiment with Candida albicans it was 512 µg/mL (≈ 1320 µM); in the experiment with Candida, 512 µg/mL (≈ 1320 µM); with Bacillus, 64 µg/mL (≈ 165 µM). The MIC stood at 64 µg/mL (≈ 165 µM) against Escherichia coli, 32 µg/mL (≈ 82.6 µM) in the experiment on Bacillus subtilis, 32 µg/mL (≈ 82.6 µM) with Staphylococcus aureus [1] and 512 µg/mL (≈ 1320 µM) in the experiment on Staphylococcus aureus [2].

Consider `Cn1c(=O)n(CCOC(=O)CNC(=O)/C=C\c2ccccc2)c(=O)c2ccccc21`, for which the minimum inhibitory concentration (MIC) against Pseudomonas aeruginosa was over 512 µg/mL; with Cryptococcus neoformans, 8 µg/mL (≈ 19.6 µM); against Aspergillus flavus it was 32 µg/mL (≈ 78.5 µM); against Candida albicans it was 512 µg/mL (≈ 1260 µM); with Candida, 512 µg/mL (≈ 1260 µM); against Bacillus, 256 µg/mL (≈ 628 µM). The MIC in the experiment on Escherichia coli was 16 µg/mL (≈ 39.3 µM); against Bacillus subtilis it was 4 µg/mL (≈ 9.82 µM); with Staphylococcus aureus [1] it was 4 µg/mL (≈ 9.82 µM); in the experiment on Staphylococcus aureus [2], 128 µg/mL (≈ 314 µM).

Consider `NC(=O)OC[C@H](O)[C@@H](O)[C@H](N)C(=O)N[C@H](C(=O)O)[C@H]1O[C@@H](n2cc(C(=O)O)c(=O)[nH]c2=O)[C@H](O)[C@@H]1O`, for which the MIC in the experiment with Cryptococcus neoformans amounted to 0.0312 µg/mL (≈ 0.0599 µM); against Aspergillus flavus, 32 µg/mL (≈ 61.4 µM); in the experiment on Saccharomyces cerevisiae, 16 µg/mL (≈ 30.7 µM); against Candida albicans it was 32 µg/mL (≈ 61.4 µM); with Candida it was 8 µg/mL (≈ 15.3 µM).

For `Cn1c(=O)n(CCOC(=O)CNC(=O)c2ccccc2)c(=O)c2ccccc21`, the MIC is over 512 µg/mL in the experiment on Pseudomonas aeruginosa; 32 µg/mL (≈ 83.9 µM) against Cryptococcus neoformans; 64 µg/mL (≈ 168 µM) against Aspergillus flavus; 512 µg/mL (≈ 1340 µM) against Candida albicans; over 512 µg/mL in the experiment on Candida; over 512 µg/mL in the experiment with Bacillus. The MIC in the experiment with Escherichia coli is 128 µg/mL (≈ 336 µM); in the experiment on Bacillus subtilis it was 512 µg/mL (≈ 1340 µM); with Staphylococcus aureus [1], over 512 µg/mL; in the experiment on Staphylococcus aureus [2], 256 µg/mL (≈ 671 µM).

Regarding `OC(Cn1cncn1)(Cn1cncn1)c1ccc(F)cc1F` [FLUCONAZOLE], the MIC was 0.0312 µg/mL (≈ 0.102 µM) against Cryptococcus neoformans; 64 µg/mL (≈ 209 µM) in the experiment with Aspergillus flavus; over 512 µg/mL in the experiment on Saccharomyces cerevisiae; 16 µg/mL (≈ 52.2 µM) with Candida albicans; 8 µg/mL (≈ 26.1 µM) in the experiment with Candida.

Turning to `CN[C@@H]1[C@H](O[C@H]2[C@H](O[C@H]3[C@H](O)[C@@H](O)[C@H](N=C(N)N)[C@@H](O)[C@@H]3N=C(N)N)O[C@@H](C)[C@]2(O)C=O)O[C@@H](CO)[C@H](O)[C@H]1O` [STREPTOMYCIN], the MIC against Pseudomonas aeruginosa was 64 µg/mL (≈ 110 µM); against Bacillus it was 16 µg/mL (≈ 27.5 µM); with Escherichia coli, 64 µg/mL (≈ 110 µM); against Bacillus subtilis, 32 µg/mL (≈ 55 µM); in the experiment with Staphylococcus aureus [1], over 512 µg/mL; with Staphylococcus aureus [2], 32 µg/mL (≈ 55 µM).
